In patent publication US20110251173A1, “CHEMICAL COMPOUNDS” (AstraZeneca AB, priority 2010, published 2011):

Biological target: T1, human DGAT1 (Homo sapiens, UniProt O75907)
T1 construct: made in house; host or cells: Sf9 insect cells (baculovirus), membrane fraction
T1 sequence (O75907 1-488): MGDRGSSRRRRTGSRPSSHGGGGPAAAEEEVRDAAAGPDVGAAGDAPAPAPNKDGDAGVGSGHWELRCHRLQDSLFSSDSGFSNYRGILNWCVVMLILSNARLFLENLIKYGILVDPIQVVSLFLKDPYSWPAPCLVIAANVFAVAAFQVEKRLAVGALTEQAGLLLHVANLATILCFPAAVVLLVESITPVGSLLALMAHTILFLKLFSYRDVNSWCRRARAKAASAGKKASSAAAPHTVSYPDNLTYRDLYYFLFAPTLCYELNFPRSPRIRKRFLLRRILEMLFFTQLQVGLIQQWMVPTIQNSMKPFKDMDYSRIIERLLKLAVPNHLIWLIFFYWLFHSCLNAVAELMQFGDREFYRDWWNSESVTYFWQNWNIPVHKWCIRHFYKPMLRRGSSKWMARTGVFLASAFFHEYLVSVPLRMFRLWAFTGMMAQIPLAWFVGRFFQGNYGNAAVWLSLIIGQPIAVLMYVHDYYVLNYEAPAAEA
Experiment: Human Enzyme Assay (DGAT1 inhibition, 14C oleoyl CoA incorporation into triolein)
Assay type: biochemical
Conditions: human DGAT1 expressed in sf9 insect cell membranes
Method: Briefly, sf9 cells were infected with recombinant baculovirus containing human DGAT1 coding sequences and harvested after 48 h. Cells were lysed by sonication and membranes isolated by centrifuging at 28000 rpm for 1 h at 4° C. on a 41% sucrose gradient. The membrane fraction at the interphase was collected, washed, and stored in liquid nitrogen.
The reaction was started by adding ^14C oleoyl coenzyme A (30 μM final concentration) and incubated at room temperature for 30 minutes. The reaction was stopped by adding 200 μl 2-propanol:heptane 7:1. Radioactive triolein product was separated into the organic phase by adding 300 μl heptane and 100 μl 0.1 M carbonate buffer pH 9.5. DGAT1 activity was quantified by counting aliquots of the upper heptane layer by liquid scintillography.

[1] = Examples 5 to 24, rounded to 2 decimal places
[2] = Examples 25 to 59, rounded to 2 decimal places

IC50 [2] [nM] | Structure (SMILES) | other results
– | Nc1ncnc2c1C(=O)N(c1ccc(-c3ccc(S(N)(=O)=O)cc3Cl)cc1)CCO2 [Example 4, 4′-(4-Amino-5-oxo-7,8-dihydropyrimido[5,4-f][1,4]oxazepin-6(5H)-yl)-2-chlorobiphenyl-4-sulfonamide] | IC50 (usually mean of 2 measurements): 35 nM
– | Cc1c(Cl)cccc1-c1ccc(N2CCOc3ncnc(N)c3C2=O)cc1 [Example 6, 4-amino-6-(3′-chloro-2′-methylbiphenyl-4-yl)-7,8-dihydropyrimido[5,4-f][1,4]oxazepin-5(6H)-one] | IC50 [1]: 400 nM
– | Cc1cc(Cl)ccc1-c1ccc(N2CCOc3ncnc(N)c3C2=O)cc1 [Example 7, 4-amino-6-(4′-chloro-2′-methylbiphenyl-4-yl)-7,8-dihydropyrimido[5,4-f][1,4]oxazepin-5(6H)-one] | IC50 [1]: 80 nM
– | Cc1ccc(Cl)cc1-c1ccc(N2CCOc3ncnc(N)c3C2=O)cc1 [Example 8, 4-amino-6-(5′-chloro-2′-methylbiphenyl-4-yl)-7,8-dihydropyrimido[5,4-f][1,4]oxazepin-5(6H)-one] | IC50 [1]: 70 nM
– | N#Cc1ccc(Cl)cc1-c1ccc(N2CCOc3ncnc(N)c3C2=O)cc1 [Example 14, 4′-(4-amino-5-oxo-7,8-dihydropyrimido[5,4-f][1,4]oxazepin-6(5H)-yl)-5-chlorobiphenyl-2-carbonitrile] | IC50 [1]: 100 nM
– | N#Cc1c(Cl)cccc1-c1ccc(N2CCOc3ncnc(N)c3C2=O)cc1 [Example 15, 4′-(4-amino-5-oxo-7,8-dihydropyrimido[5,4-f][1,4]oxazepin-6(5H)-yl)-3-chlorobiphenyl-2-carbonitrile] | IC50 [1]: 240 nM
– | Nc1ncnc2c1C(=O)N(c1ccc(-c3ccc(S(N)(=O)=O)cc3Cl)cc1)CCO2 [Example 18, 4′-(4-Amino-5-oxo-7,8-dihydropyrimido[5,4-f][1,4]oxazepin-6(5H)-yl)-2-chlorobiphenyl-4-sulfonamide] | IC50 [1]: 40 nM
– | N#Cc1cc(Cl)ccc1-c1ccc(N2CCOc3ncnc(N)c3C2=O)cc1 [Example 22, 4′-(4-Amino-5-oxo-7,8-dihydropyrimido[5,4-f][1,4]oxazepin-6(5H)-yl)-4-chlorobiphenyl-2-carbonitrile] | IC50 [1]: 50 nM
320 | Nc1ncnc2c1C(=O)N(c1ccc(-c3cccc(F)c3F)cc1)CCO2 [Example 25, 4-Amino-6-(2′,3′-difluorobiphenyl-4-yl)-7,8-dihydropyrimido[5,4-f][1,4]oxazepin-5(6H)-one] | –
110 | Nc1ncnc2c1C(=O)N(c1ccc(-c3cc(F)ccc3F)cc1)CCO2 [Example 26, 4-Amino-6-(2′,5′-difluorobiphenyl-4-yl)-7,8-dihydropyrimido[5,4-f][1,4]oxazepin-5(6H)-one] | –
40 | Nc1ncnc2c1C(=O)N(c1ccc(-c3ccc(Cl)cc3F)cc1)CCO2 [Example 27, 4-Amino-6-(4′-chloro-2′-fluorobiphenyl-4-yl)-7,8-dihydropyrimido[5,4-f][1,4]oxazepin-5(6H)-one] | –
130 | Nc1ncnc2c1C(=O)N(c1ccc(-c3cc(F)c(F)cc3F)cc1)CCO2 [Example 28, 4-Amino-6-(2′,4′,5′-trifluorobiphenyl-4-yl)-7,8-dihydropyrimido[5,4-f][1,4]oxazepin-5(6H)-one] | –
60 | Nc1ncnc2c1C(=O)N(c1ccc(-c3ccc(F)cc3F)cc1)CCO2 [Example 29, 4-Amino-6-(2′,4′-difluorobiphenyl-4-yl)-7,8-dihydropyrimido[5,4-f][1,4]oxazepin-5(6H)-one] | –
90 | Cc1nc(N)c2c(n1)OCCN(c1ccc(-c3ccccc3Cl)cc1)C2=O [Example 42, 4-Amino-6-(2′-chlorobiphenyl-4-yl)-2-methyl-7,8-dihydropyrimido[5,4-f][1,4]oxazepin-5(6H)-one] | –
100 | Cc1nc(N)c2c(n1)OCCN(c1ccc(-c3ccc(CNS(C)(=O)=O)cc3Cl)cc1)C2=O [Example 43, N-((4′-(4-amino-2-methyl-5-oxo-7,8-dihydropyrimido[5,4-f][1,4]oxazepin-6(5H)-yl)-2-chlorobiphenyl-4-yl)methyl)methanesulfonamide] | –
20 | C[C@@H]1CN(c2ccc(-c3ccccc3Cl)cc2)C(=O)c2c(N)ncnc2O1 [Example 44, (R)-4-Amino-6-(2′-chlorobiphenyl-4-yl)-8-methyl-7,8-dihydropyrimido[5,4-f][1,4]oxazepin-5(6H)-one] | –
60 | C[C@@H]1CN(c2ccc(-c3ccc(CNS(C)(=O)=O)cc3Cl)cc2)C(=O)c2c(N)ncnc2O1 [Example 45, (R)—N-((4′-(4-amino-8-methyl-5-oxo-7,8-dihydropyrimido[5,4-f][1,4]oxazepin-6(5H)-yl)-2-chlorobiphenyl-4-yl)methyl)methanesulfonamide] | –
20 | C[C@@H]1CN(c2ccc(-c3ccccc3F)cc2)C(=O)c2c(N)ncnc2O1 [Example 46, (R)-4-amino-6-(2′-fluorobiphenyl-4-yl)-8-methyl-7,8-dihydropyrimido[5,4-f][1,4]oxazepin-5(6H)-one] | –
50 | C[C@@H]1CN(c2ccc(-c3ccc(CN(C)S(C)(=O)=O)cc3Cl)cc2)C(=O)c2c(N)ncnc2O1 [Example 47, (R)—N-((4′-(4-amino-8-methyl-5-oxo-7,8-dihydropyrimido[5,4-f][1,4]oxazepin-6(5H)-yl)-2-chlorobiphenyl-4-yl)methyl)-N-methylmethanesulfonamide] | –
60 | C[C@@H]1CN(c2ccc(-c3ccc(CS(C)(=O)=O)cc3Cl)cc2)C(=O)c2c(N)ncnc2O1 [Example 48, (R)-4-Amino-6-(2′-chloro-4′-(methylsulfonylmethyl)biphenyl-4-yl)-8-methyl-7,8-dihydropyrimido[5,4-f][1,4]oxazepin-5(6H)-one] | –
20 | C[C@@H]1CN(c2ccc(-c3c(F)cccc3F)cc2)C(=O)c2c(N)ncnc2O1 [Example 49, (R)-4-amino-6-(2′,6′-difluorobiphenyl-4-yl)-8-methyl-7,8-dihydropyrimido[5,4-f][1,4]oxazepin-5(6H)-one] | –
40 | C[C@@H]1CN(c2ccc(-c3ccc(Cl)cc3C#N)c(F)c2)C(=O)c2c(N)ncnc2O1 [Example 50, (R)-4′-(4-Amino-8-methyl-5-oxo-7,8-dihydropyrimido[5,4-f][1,4]oxazepin-6(5H)-yl)-4-chloro-2′-fluorobiphenyl-2-carbonitrile] | –
20 | C[C@@H]1CN(c2ccc(-c3ccc(C#N)cc3Cl)c(F)c2)C(=O)c2c(N)ncnc2O1 [Example 51, (R)-4′-(4-Amino-8-methyl-5-oxo-7,8-dihydropyrimido[5,4-f][1,4]oxazepin-6(5H)-yl)-2-chloro-2′-fluorobiphenyl-4-carbonitrile] | –
70 | C[C@@H]1CN(c2ccc(-c3c(Cl)cccc3C#N)c(F)c2)C(=O)c2c(N)ncnc2O1 [Example 52, 4′-((R)-4-Amino-8-methyl-5-oxo-7,8-dihydropyrimido[5,4-f][1,4]oxazepin-6(5H)-yl)-6-chloro-2′-fluorobiphenyl-2-carbonitrile] | –
20 | C[C@@H]1CN(c2ccc(-c3ccc(F)cc3F)c(F)c2)C(=O)c2c(N)ncnc2O1 [Example 53, (R)-4-Amino-8-methyl-6-(2,2′,4′-trifluorobiphenyl-4-yl)-7,8-dihydropyrimido[5,4-f][1,4]oxazepin-5(6H)-one] | –
20 | C[C@@H]1CN(c2ccc(-c3ccccc3F)c(F)c2)C(=O)c2c(N)ncnc2O1 [Example 54, (R)-4-Amino-6-(2,2′-difluorobiphenyl-4-yl)-8-methyl-7,8-dihydropyrimido[5,4-f][1,4]oxazepin-5(6H)-one] | –
10 | C[C@@H]1CN(c2ccc(-c3ccccc3Cl)c(F)c2)C(=O)c2c(N)ncnc2O1 [Example 55, (R)-4-Amino-6-(2′-chloro-2-fluorobiphenyl-4-yl)-8-methyl-7,8-dihydropyrimido[5,4-f][1,4]oxazepin-5(6H)-one] | –
10 | C[C@@H]1CN(c2ccc(-c3c(F)cccc3Cl)c(F)c2)C(=O)c2c(N)ncnc2O1 [Example 56, (8R)-4-amino-6-(2′-chloro-2,6′-difluorobiphenyl-4-yl)-8-methyl-7,8-dihydropyrimido[5,4-f][1,4]oxazepin-5(6H)-one] | –
20 | C[C@@H]1CN(c2ccc(-c3c(F)cccc3F)c(F)c2)C(=O)c2c(N)ncnc2O1 [Example 57, (R)-4-amino-8-methyl-6-(2,2′,6′-trifluorobiphenyl-4-yl)-7,8-dihydropyrimido[5,4-f][1,4]oxazepin-5(6H)-one] | –
20 | C[C@@H]1CN(c2ccc(-c3ccccc3Cl)c(C#N)c2)C(=O)c2c(N)ncnc2O1 [Example 59, (R)-4-(4-Amino-8-methyl-5-oxo-7,8-dihydropyrimido[5,4-f][1,4]oxazepin-6(5H)-yl)-2′-chlorobiphenyl-2-carbonitrile] | –
